Measured values: PubChem BioAssay AID1963976 (Molecular Pharmacology Branch, DTP, NCI, 2024)

Test system: 435261-313-R-J1-PDC tumor spheroid viability
Assay: Anticancer human tumor 435261-313-R-J1-PDC patient-derived colon adenocarcinoma cell line growth inhibition [PI3K]
Conditions: spheroids with HUVEC and MSC; for IC50: curve of first compound; for viability, T/C: stronger effect = lower value
Method in brief: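 Tumor cells were combined with HUVEC and MSCs into spheroids, then dosed with PI3K-inhibitor combinations over half-log ranges capped near clinical Cmax or 10 microM.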

[1] = second compound 0.00316 µM, first compound 0.0316 µM
[2] = second compound 0.00316 µM, first compound 0.1 µM
[3] = second compound 0.00316 µM, first compound 0.316 µM
[4] = second compound 0.00316 µM, first compound 1 µM
[5] = second compound 0.01 µM, first compound 0.0316 µM
[6] = second compound 0.01 µM, first compound 0.1 µM
[7] = second compound 0.01 µM, first compound 0.316 µM
[8] = second compound 0.01 µM, first compound 1 µM
[9] = second compound 0.0316 µM, first compound 0.0316 µM
[10] = second compound 0.0316 µM, first compound 0.1 µM
[11] = second compound 0.0316 µM, first compound 0.316 µM
[12] = second compound 0.0316 µM, first compound 1 µM
[13] = second compound 0.1 µM, first compound 0.0316 µM
[14] = second compound 0.1 µM, first compound 0.1 µM
[15] = second compound 0.1 µM, first compound 0.316 µM
[16] = second compound 0.1 µM, first compound 1 µM
[17] = second compound 0.316 µM, first compound 0.0316 µM
[18] = second compound 0.316 µM, first compound 0.1 µM
[19] = second compound 0.316 µM, first compound 0.316 µM
[20] = second compound 0.316 µM, first compound 1 µM
[21] = second compound 1 µM, first compound 0.0316 µM
[22] = second compound 1 µM, first compound 0.1 µM
[23] = second compound 1 µM, first compound 0.316 µM
[24] = second compound 1 µM, first compound 1 µM
[25] = second compound 0.00316 µM, first compound 3.16 µM
[26] = second compound 0.00316 µM, first compound 10 µM
[27] = second compound 0.01 µM, first compound 3.16 µM
[28] = second compound 0.01 µM, first compound 10 µM
[29] = second compound 0.0316 µM, first compound 3.16 µM
[30] = second compound 0.0316 µM, first compound 10 µM
[31] = second compound 0.1 µM, first compound 3.16 µM
[32] = second compound 0.1 µM, first compound 10 µM
[33] = second compound 0.316 µM, first compound 3.16 µM
[34] = second compound 0.316 µM, first compound 10 µM
[35] = second compound 1 µM, first compound 3.16 µM
[36] = second compound 1 µM, first compound 10 µM
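Also: spheroids exposed to compounds for 7 days.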

`CCN1CCN(Cc2ccc(Nc3ncc(F)c(-c4cc(F)c5nc(C)n(C(C)C)c5c4)n3)nc2)CC1` + CC(Nc1ccc2c(c1)OCCn1cc(N3C(=O)OCC3C(F)F)nc1-2)C(N)=O showed an IC50 (second compound 0.00316 µM) of 0.124 µM, an IC50 (second compound 0.01 µM) of 0.0308 µM and an IC50 (second compound 0.0316 µM) of 0.0206 µM. For the same compound, the IC50 (second compound 0.1 µM) was < 0.00316 µM, the IC50 (second compound 0.316 µM) was < 0.00316 µM and the IC50 (second compound 1 µM) was < 0.00316 µM. The viability, T/C (second compound 0.00316 µM, first compound 0.00316 µM) was 94%, the viability, T/C (second compound 0.00316 µM, first compound 0.01 µM) was 71.5% and the viability, T/C [1] was 53.1%. For the same compound, the viability, T/C [2] was 66.9%, the viability, T/C [3] was 37% and the viability, T/C [4] was 33.9%. The viability, T/C (second compound 0.01 µM, first compound 0.00316 µM) was 71.5%, the viability, T/C (second compound 0.01 µM, first compound 0.01 µM) was 103% and the viability, T/C [5] was 49.1%. The viability, T/C [6] was 46.4%, the viability, T/C [7] was 33.8% and the viability, T/C [8] was 33.8%. For the same compound, the viability, T/C (second compound 0.0316 µM, first compound 0.00316 µM) was 73.6%, the viability, T/C (second compound 0.0316 µM, first compound 0.01 µM) was 58.5% and the viability, T/C [9] was 47.3%. The viability, T/C [10] was 29.1%, the viability, T/C [11] was 28.3% and the viability, T/C [12] was 30.5%. It also gave a viability, T/C (second compound 0.1 µM, first compound 0.00316 µM) of 37.7%, a viability, T/C (second compound 0.1 µM, first compound 0.01 µM) of 20.3% and a viability, T/C [13] of 25.9%. The viability, T/C [14] was 21.1%, the viability, T/C [15] was 19.8% and the viability, T/C [16] was 25.3%. For the same compound, the viability, T/C (second compound 0.316 µM, first compound 0.00316 µM) was 17.9%, the viability, T/C (second compound 0.316 µM, first compound 0.01 µM) was 20.8% and the viability, T/C [17] was 16.7%. The viability, T/C [18] was 16.8%, the viability, T/C [19] was 17.2% and the viability, T/C [20] was 16%. For the same compound, the viability, T/C (second compound 1 µM, first compound 0.00316 µM) was 17.1%, the viability, T/C (second compound 1 µM, first compound 0.01 µM) was 15.3% and the viability, T/C [21] was 14%. For the same compound, the viability, T/C [22] was 15.2%, the viability, T/C [23] was 15.1% and the viability, T/C [24] was 13.4%.
In the case of `Cn1ncc(Cl)c1-c1cc(C(=O)NC(CN)Cc2cccc(F)c2)sc1Cl` (stereo unspecified) + CC(Nc1ccc2c(c1)OCCn1cc(N3C(=O)OCC3C(F)F)nc1-2)C(N)=O, the IC50 (second compound 0.00316 µM) is reported as 0.567 µM, the IC50 (second compound 0.01 µM) is reported as 0.447 µM and the IC50 (second compound 0.0316 µM) is reported as 0.225 µM. The IC50 (second compound 0.1 µM) was 0.0319 µM, the IC50 (second compound 0.316 µM) was < 0.0316 µM and the IC50 (second compound 1 µM) was < 0.0316 µM. The viability, T/C [1] was 75.2%, the viability, T/C [2] was 84.9% and the viability, T/C [3] was 67.3%. It also gave a viability, T/C [4] of 31.6%, a viability, T/C [25] of 18.7% and a viability, T/C [26] of 7.28%. The viability, T/C [5] was 67.9%, the viability, T/C [6] was 92.8% and the viability, T/C [7] was 51.9%. For the same compound, the viability, T/C [8] was 31.2%, the viability, T/C [27] was 19.1% and the viability, T/C [28] was 6.44%. For the same compound, the viability, T/C [9] was 67.8%, the viability, T/C [10] was 91.3% and the viability, T/C [11] was 37.5%. It also gave a viability, T/C [12] of 25.3%, a viability, T/C [29] of 17.2% and a viability, T/C [30] of 5.79%. The viability, T/C [13] was 50.8%, the viability, T/C [14] was 38% and the viability, T/C [15] was 21.1%. The viability, T/C [16] was 19.4%, the viability, T/C [31] was 15.4% and the viability, T/C [32] was 5.16%. It also gave a viability, T/C [17] of 20.9%, a viability, T/C [18] of 20.1% and a viability, T/C [19] of 14%. It also gave a viability, T/C [20] of 16.5%, a viability, T/C [33] of 13% and a viability, T/C [34] of 4.44%. It also gave a viability, T/C [21] of 18.2%, a viability, T/C [22] of 13.5% and a viability, T/C [23] of 15.7%. It also gave a viability, T/C [24] of 17.2%, a viability, T/C [35] of 11.4% and a viability, T/C [36] of 2.55%.
`Cn1nccc1Nc1nccc(-c2ccn(C(CO)c3ccc(Cl)c(F)c3)c(=O)c2)n1` (stereo unspecified) + CC(Nc1ccc2c(c1)OCCn1cc(N3C(=O)OCC3C(F)F)nc1-2)C(N)=O showed an IC50 (second compound 0.00316 µM) of 0.421 µM, an IC50 (second compound 0.01 µM) of 0.218 µM and an IC50 (second compound 0.0316 µM) of 0.105 µM. For the same compound, the IC50 (second compound 0.1 µM) was < 0.0316 µM, the IC50 (second compound 0.316 µM) was < 0.0316 µM and the IC50 (second compound 1 µM) was < 0.0316 µM. It also gave a viability, T/C [1] of 90.4%, a viability, T/C [2] of 73.3% and a viability, T/C [3] of 51.7%. The viability, T/C [4] was 40.1%, the viability, T/C [25] was 22.1% and the viability, T/C [26] was 12.8%. For the same compound, the viability, T/C [5] was 72.6%, the viability, T/C [6] was 71.7% and the viability, T/C [7] was 39.5%. It also gave a viability, T/C [8] of 25.6%, a viability, T/C [27] of 27% and a viability, T/C [28] of 11.7%. For the same compound, the viability, T/C [9] was 68%, the viability, T/C [10] was 52.1% and the viability, T/C [11] was 28.7%. For the same compound, the viability, T/C [12] was 18.9%, the viability, T/C [29] was 14.9% and the viability, T/C [30] was 8.18%. It also gave a viability, T/C [13] of 38.6%, a viability, T/C [14] of 23.1% and a viability, T/C [15] of 16.9%. It also gave a viability, T/C [16] of 11.8%, a viability, T/C [31] of 10.1% and a viability, T/C [32] of 5.9%. It also gave a viability, T/C [17] of 19.6%, a viability, T/C [18] of 16.3% and a viability, T/C [19] of 9.92%. The viability, T/C [20] was 8.05%, the viability, T/C [33] was 5.78% and the viability, T/C [34] was 3.34%. For the same compound, the viability, T/C [21] was 16.8%, the viability, T/C [22] was 12.2% and the viability, T/C [23] was 6.71%. The viability, T/C [24] was 6.3%, the viability, T/C [35] was 4.27% and the viability, T/C [36] was 0.75%.
